Reference: US20120135002A1, “Compounds and Methods for the Treatment of Cancer” (priority 2009, published 2012)

How the values were obtained:
HL60 = assay: Transcriptome (microarray) analysis of treated HL60 cells; format: cell-based, human; details: for number of genes modulated by the three different agents: HL60 cell line, genes affected by DFO, DFX and mAb A24 together
AML cells lines = assay: CD14 and CD11b monocytic marker expression in AML cell lines; format: cell-based
Experimental: Peripheral blood cells from AML patients and healthy donors was analyzed after obtaining their written informed consent (please refer to supplementary table 2 for additional information). Peripheral blood was collected at the initial diagnosis previously to treatment administration. Mononuclear cells were separated by Ficoll-hypaque (PAA laboratories) density centrifugation and resuspended in IMDM medium (Invitrogen) supplemented with 15% fetal calf serum (FCS) (Hyclone), 100 ng/ml Stem Cell Factor (SCF), 10 ng/ml Interleukin 3 (IL-3) and 25 ng/ml FLT3-L (all purchased from R&D Systems). HL60 and U937 cell lines were a kind gift from J. M. Cayuela (Saint-Louis Hospital, Paris). Cells were cultured in RPMI-1640 medium (Invitrogen) supplemented with 5% FCS and antibiotics.
The ability of iron deprivation to override blockade of AML cells differentiation was tested. In AML cells lines, monocytic markers CD14 and CD11b (which are induced by the vitamin D3 (VD), a monocytic differentiating agent) were induced by iron deprivation by A24 mAb, DFO and DFX. Induction of cell surface markers was accompanied by characteristic cytological modifications of monocytes. Iron deprivation induced cytoplasm enlargement, loss of cytoplasm basophilia and azurophilic granules. […]

c-Jun, c-Fos = assay: c-Jun and c-Fos expression in HL60 cells; format: cell-based; details: VD 250 nM, A24 10 μg/ml, DFO 5 μM, DFX 3 μM
Experimental: FIG. 4 depicts the change in c-Jun expression following treatment of HL60 cells with vitamin D3 (VD, 250 nM), A24 (A24, 10 μg/ml), deferoxamine (DFO, 5 μM) or deferasirox (DFX, 3 μM).
FIG. 5 depicts the c-Fos and c-Jun mRNA levels (evaluated by quantitative RT-PCR and normalized to GAPDH mRNA levels) in HL60 cells treated for 48 h with A24 (A24, 10 μg/ml); deferoxamine (DFO, 5 μM); or deferasirox (DFX, 3 μM) (mean±SEM, n=4).
Total RNA was extracted using Nucleospin RNA II (Macherey-Nagel). Following DNAse treatment, first-strand cDNA was synthesized using a SuperScript II reverse transcriptase (Invitrogen). Quantitative real-time PCR was performed with a Chromo-IV PCR System (MJ Research) and PCR products were quantified using SybrGreen Technology (Jumpstart mastermix, Sigma Aldrich). Results of real-time quantitative PCR were interpreted using the delta-delta Ct method (Livak et al. (2001) Methods 25:402-408). The complete list of primer sequences used is available in supplementary data section, table 4.
By comparing (with a non-supervised analysis) the pattern of genes induced by VD and iron-chelating agents, a high similarity was found among modulated genes. Thirty of the 105 genes modulated by iron deprivation were shared with VD modified genes. This finding underscores the potential similarities between both differentiation approaches. […]

[1] = test system: squamous cell carcinoma and prostatic adenocarcinoma; details: in vitro; cited from earlier work

CC(=O)N(O)CCCCCNC(=O)CCC(=O)N(O)CCCCCNC(=O)CCC(=O)N(O)CCCCCN [DFO]
number of genes modulated by the three different agents (HL60): 105

O=C(O)c1ccc(-n2nc(-c3ccccc3O)nc2-c2ccccc2O)cc1 [DFX, 4-[3,5-bis(2-hydroxyphenyl)-[1,2,4]triazol-1-yl]benzoic acid]
number of genes modulated by the three different agents (HL60): 105
monocytic markers CD14 and CD11b (AML cells lines): induced

C=C1CC[C@H](O)C/C1=C/C=C1\CCC[C@]2(C)[C@@H]([C@H](C)CCCC(C)C)CC[C@@H]12 [VD, cholecalciferol]
markers of granulocyte differentiation / neutrophils (ELA2, PRTN3, CLC, AZU) (HL60; HL60, gene expression): down-regulated
markers of monocytes or activated macrophages (SERPINB8, ITGB2, TREML2, ITGAM) (HL60; HL60, gene expression): up-regulated
similarity of genes targeted by iron deprivation with VD (HL60; genome screening): 30%
genes of the 105 modulated by iron deprivation shared with VD modified genes (HL60; non-supervised analysis): Thirty
monocytic markers CD14 and CD11b (AML cells lines): induced
c-Jun gene expression (c-Jun, c-Fos): induced

C=C1/C(=C\C=C2/CCC[C@]3(C)[C@@H]([C@H](C)CCCC(C)(C)O)CC[C@@H]23)C[C@@H](O)C[C@@H]1O [calcitriol, 1α,25-dihydroxycholecalciferol D3]
antiproliferative activity [1]: exhibits antiproliferative activity
